Source: patent publication US7728029B2, “Adamantyl-pyrazole carboxamides as inhibitors of 11β-hdroxysteroid dehydrogenase” (Hoffmann-La Roche Inc., priority 2006, dated 2010)

Key:
human 11betaHSD1 = target: T1, human 11betaHSD1 (Homo sapiens, UniProt P28845); assay: Human Hek Assay: cortisone to cortisol conversion in HEK-293 cells stably transfected with human 11betaHSD1, cortisol by ELISA; assay type: cell-based; settings: HEK-293 cells transfected with human 11betaHSD1; 100 nM cortisone, 1 hour; read-out: humHEK (IC50)
T1 construct: stably transfected with full-length human 11betaHSD1 cDNA; expressed in transfected cells; host or cells: HEK-293
T1 sequence (P28845 whole entry): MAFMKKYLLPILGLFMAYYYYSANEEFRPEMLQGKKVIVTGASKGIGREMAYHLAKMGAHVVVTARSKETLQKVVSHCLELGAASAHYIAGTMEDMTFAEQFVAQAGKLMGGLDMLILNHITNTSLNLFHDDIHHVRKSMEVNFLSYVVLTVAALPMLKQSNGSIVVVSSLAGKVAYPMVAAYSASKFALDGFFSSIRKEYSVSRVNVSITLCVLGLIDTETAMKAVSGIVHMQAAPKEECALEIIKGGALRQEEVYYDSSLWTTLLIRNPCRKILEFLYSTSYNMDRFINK
Procedure: HEK-293 cells stably transfected with full-length human 11betaHSD1 cDNA were propagated and expanded in DMEM high glucose media (Invitrogen Cat# 11995-065), supplemented with 10% FCS (Invitrogen Cat# 10082-147), pen/strep (10 μg/mL), and geneticin (10 μg/mL). One day prior to assay, cells were released from flasks using trypsin/EDTA, centrifuged, and washed with plating media (DMEM high glucose, without phenol red; Invitrogen Cat# 21063-029, supplemented with 2% charcoal stripped FCS; Gemini Cat# A22311P). From a 250,000 cells/mL suspension in plating media, 200 μL of cells were seeded into each well of a 96-well coated plate (BioCoat Cat#356461) and cultured overnight at 37° C. The following day, serially diluted 11betaHSD1 inhibitor compounds dissolved in DMSO were added to plating media supplemented with BSA (2 mg/mL final). The final DMSO concentration was 1%. Media was aspirated from plates, and compounds in media were added to each well. The plates were incubated at 37 degrees C. for 1 hour to allow for cellular uptake of compounds. 10 μL of substrate (cortisone) was then added to each well (100 nM final concentration) and incubated for 1 hour at 37 degrees C. Plates were then transferred to ice and 80 μL of media transferred to a 96-well plate and stored at −30° C.
Quantitation of cortisol in cell media was performed by competitive ELISA using ELISA-Light (Tropix Cat# T10206/EL100S4), anti-cortisol EIA antibody (Assay Designs, Inc. Cat#80-1148), and cortisol-enzyme conjugate (Assay Designs, Inc. Cat# 80-1147). 384-well plates (Falcon Cat#3988) were precoated with anti-mouse IgG (Sigma Cat# M-1397) suspended in 0.9% NaCl (5 mg/mL), 50 μL per well, overnight at 4 degrees C. Plates were washed with PBS, 0.1% Tween-20, then washed with PBS alone. Plates were blocked with Blocking Buffer (Tropix Cat# AI075) for 2 hours at room temperature. The plates were then washed as previously described. Assay samples were thawed, diluted 1:4 in DMEM, 2 mg/mL BSA, 1% DMSO, and 24 μL was transferred to wells of a pre-coated 384-well plate, as well as varying amounts of cortisol standard. To each well, 12 μL of cortisol-conjugate and 12 μL of anti-cortisol EIA antibody were added and incubated 2 hrs at room temperature on a orbital plate shaker. The wells were then emptied by inversion, then washed three times with 100 μL of Wash Buffer (Tropix), and then 2 times with 100 μL of Assay Buffer (Tropix). 60 μL of CDP-STAR (Tropix) was added to each well and incubated 10 minutes at room temperature. Chemiluminescence was measured using a Victor V Reader (Perkin Elmer). Cortisol in each sample was interpolated from a standard curve generated with known amounts of cortisol. IC50 values were calculated using the curve fitting software XLFit3 (IDBS).

human 11-β-HSD1 = target: T2, human 11-β-HSD1 (Homo sapiens, UniProt P28845); assay: Human H4IIE Assay: steroid conversion assay in H4IIe cells stably transfected with human 11-β-HSD1 cDNA, cortisol by ELISA; assay type: cell-based; settings: H4IIe cells transfected with human 11-β-HSD1; 200 nM cortisone, 120 minutes; read-out: HumH4IIe (IC50)
T2 construct: expressed in transfected cells; host or cells: H4IIe
T2 sequence (P28845 whole entry): as above
Procedure: H4IIe cells stably transfected with the human 11-β-HSD1 cDNA (humH4IIe) were maintained in Dulbeccos Modified Essential Medium (DMEM)+10% fetal bovine serum (FBS) containing Penicillin (100 IU/ml) and Streptomycin (100 μg/ml), Geneticin (800 μg/ml) and L-Glutamine (2 mM) at 37° C. in a humidified atmosphere (95% air, 5% CO2).
humH4IIe cells at 80% confluence in a 225 cm^2 flask were washed with PBS then detached with warm Trypsin/EDTA. The cells were counted and resuspended in Dulbeccos Modified Essential Medium lacking phenol red (DMEM) containing 2% stripped serum, at a concentration of 100,000 cells per 200 μl, and plated in a 96-well cell culture plate (precoated with Poly-Lysine). The cells were incubated overnight at 37° C. in a humidified atmosphere (95% air, 5% CO2).
Conversion assays were performed one day after seeding 96-well plates. The media was removed and replaced with 100 ul Dulbeccos Modified Essential Medium without phenol red (DMEM) containing 2 mg/ml Bovine Serum Albumin (BSA)+1% DMSO or test compound dissolved in DMSO.
The cells were incubated with test compound for 60 minutes at 37° C. in a humidified atmosphere (95% air, 5% CO2). After 60 minutes, cortisone was added to 200 nM final, and the cells were incubated for 120 minutes at 37° C. in a humidified atmosphere (95% air, 5% CO2).
The reaction was stopped by transferring 80 μl of media to an empty 96-well plate. Samples were stored at −20° C. until assayed for cortisol concentration using an ELISA method.

Row | IC50 (human 11betaHSD1) [nM] | IC50 (human 11-β-HSD1) [nM] | Compound
1 | 39.9 | – | Cn1ncc(C(=O)NC2C3CC4CC2CC(O)(C4)C3)c1-n1cccc1 (stereo not shown) [Example 1, 1-methyl-5-pyrrol-1-yl-1H-pyrazole-4-carboxylic acid (5-hydroxy-adamantan-2-yl)-amide]
2 | 22.2 | – | Cn1ncc(C(=O)N[C@H]2C3CC4CC2C[C@](O)(C4)C3)c1-n1cccc1 [Example 2, trans-1-Methyl-5-pyrrol-1-yl-1H-pyrazole-4-carboxylic acid (5-hydroxy-adamantan-2-yl)-amide]
3 | 189 | – | Cn1ncc(C(=O)NC2C3CC4CC(C3)CC2C4)c1Cl (stereo not shown) [Example 5, 5-Chloro-1-methyl-1H-pyrazole-4-carboxylic acid adamantan-2-ylamide]
4 | 9.8 | – | CC(C)(C)n1ncc(C(=O)NC2C3CC4CC(C3)CC2C4)c1C(F)(F)F (stereo not shown) [Example 6, 1-tert-butyl-5-trifluoromethyl-1H-pyrazole-4-carboxylic acid adamantan-2-ylamide]
5 | 601 | – | CC(C)(C)n1ncc(C(=O)N[C@H]2C3CC4CC2C[C@](O)(C4)C3)c1C(F)(F)F [Example 7, trans-1-tert-butyl-5-trifluoromethyl-1H-pyrazole-4-carboxylic acid (5-hydroxy-adamantan-2-yl)-amide]
6 | 20.2 | – | CC(C)(C)n1ncc(C(=O)N[C@H]2C3CC4CC2C[C@@](O)(C4)C3)c1C(F)(F)F [Example 8, cis-1-tert-butyl-5-trifluoromethyl-1H-pyrazole-4-carboxylic acid (5-hydroxy-adamantan-2-yl)-amide]
7 | 38.6 | – | Cn1ncc(C(=O)N[C@H]2C3CC4CC2C[C@](O)(C4)C3)c1-n1cccn1 [Example 9, trans-2′-Methyl-2′H-[1,3′]bipyrazolyl-4′-carboxylic acid (5-hydroxy-adamantan-2-yl)-amide]
8 | 23.3 | – | CN1CCN(c2c(C(=O)NC3C4CC5CC(C4)CC3C5)cnn2C)CC1 (stereo not shown) [Example 14, 1-Methyl-5-(4-methyl-piperazin-1-yl)-1H-pyrazole-4-carboxylic acid adamantan-2-ylamide]
9 | 16.6 | – | Cn1ncc(C(=O)NC2C3CC4CC(C3)CC2C4)c1N1CCOCC1 (stereo not shown) [Example 22, 1-methyl-5-morpholin-4-yl-1H-pyrazole-4-carboxylic acid adamantan-2-ylamide]
10 | 71.5 | – | COCCNc1c(C(=O)NC2C3CC4CC(C3)CC2C4)cnn1C (stereo not shown) [Example 23, 5-(2-Methoxy-ethylamino)-1-methyl-1H-pyrazole-4-carboxylic acid adamantan-2-ylamide]
11 | 6.8 | – | CC(C)(C)n1ncc(C(=O)NC2C3CC4CC(C3)CC2C4)c1-n1cccn1 (stereo not shown) [Example 33, 2′-tert-Butyl-2′H-[1,3′]bipyrazolyl-4′-carboxylic acid adamantan-2-ylamide]
12 | 19.2 | 5.6 | CC(C)(C)n1ncc(C(=O)N[C@H]2C3CC4CC2C[C@](O)(C4)C3)c1Cl [Example 34, trans-1-tert-Butyl-5-chloro-1H-pyrazole-4-carboxylic acid (5-hydroxy-adamantan-2-yl)-amide]
13 | 20 | 0.5 | CC(C)(C)n1ncc(C(=O)N[C@H]2C3CC4CC2C[C@](O)(C4)C3)c1-n1cccn1 [Example 35, trans-2′-tert-Butyl-2′H-[1,3′]bipyrazolyl-4′-carboxylic acid (5-hydroxy-adamantan-2-yl)-amide]
14 | 66.2 | 8.5 | CC(=O)NC12CC3CC(C1)C(NC(=O)c1cnn(C(C)(C)C)c1Cl)C(C3)C2 (stereo not drawn) [Example 46, trans-1-tert-Butyl-5-chloro-1H-pyrazole-4-carboxylic acid (5-acetylamino-adamantan-2-yl)-amide]
15 | 18.1 | 0.3 | CC(=O)NC12CC3CC(C1)C(NC(=O)c1cnn(C(C)(C)C)c1C(F)(F)F)C(C3)C2 (stereo not drawn) [Example 48, trans-1-tert-Butyl-5-trifluoromethyl-1H-pyrazole-4-carboxylic acid (5-acetylamino-adamantan-2-yl)-amide]
16 | 23.8 | 8 | CC(=O)NC12CC3CC(C1)C(NC(=O)c1cnn(C(C)(C)C)c1-n1cccn1)C(C3)C2 (stereo not drawn) [Example 50, trans-2′-tert-Butyl-2′H-[1,3′]bipyrazolyl-4′-carboxylic acid (5-acetylamino-adamantan-2-yl)-amide]
17 | 76.9 | 6 | Cn1ncc(C(=O)NC2C3CC4CC2CC(NS(C)(=O)=O)(C4)C3)c1-n1cccn1 (stereo not drawn) [Example 53, trans-2′-Methyl-2′H-[1,3′]bipyrazolyl-4′-carboxylic acid (5-methanesulfonylamino-adamantan-2-yl)-amide]
18 | – | 15.3 | COCCOCCn1ncc(C(=O)N[C@H]2C3CC4CC2C[C@](O)(C4)C3)c1-n1cccn1 [Example 76, trans-2′-[2-(2-Methoxyethoxy)-ethyl]-2′H-[1,3′]bipryazolyl-4′-carboxylic acid (5-hydroxyadamantan-2-yl)-amide]
19 | 22.9 | 0.6 | trans-2′-(2-Methoxyethyl)-2′H-[1,3′]bipyrazolyl-4′-carboxylic acid (5-hydroxy-adamantan-2-yl-amide [Example 73]
20 | 48.2 | 5.9 | trans-2′-Methyl-2′H-[1,3′]bipyrazolyl-4′-carboxylic acid (5-acetylamino-adamantan-2-yl)-amide [Example 45]

Row | Compound | IC50 (human 11betaHSD1) [nM] | IC50 (human 11-β-HSD1) [nM]
21 | O=C(NC1C2CC3CC(C2)CC1C3)c1cnn(C2CC2)c1C(F)(F)F (stereo not shown) [Example 12, 1-cyclopropyl-5-trifluoromethyl-1H-pyrazole-4-carboxylic acid adamantan-2-ylamide] | 22.2 | –
22 | COCCN(C)c1c(C(=O)NC2C3CC4CC(C3)CC2C4)cnn1C (stereo not shown) [Example 32, 5-[(2-Methoxy-ethyl)-methyl-amino]-1-methyl-1H-pyrazole-4-carboxylic acid adamantan-2-ylamide] | 26.2 | –
23 | CC(C)(C)OCCn1ncc(C(=O)N[C@H]2C3CC4CC2C[C@](O)(C4)C3)c1C(F)(F)F [Example 77, trans-1-(2-tert-Butoxyethyl)-5-trifluoromethyl-1H-pyrazole-4-carboxylic acid (5-hydroxy-adamantan-2-yl)-amide] | – | 4.6
